The test system of this experiment is P388 leukemia ip, CD2F1 mice, survival T/C. The experiment is described as follows: NCI In Vivo Anticancer Drug Screen. Data for tumor model P388 Leukemia (intraperitoneal) in CD2F1 (CDF1) mice. The conditions noted are these: endpoint: median survival time, higher = longer survival. The method in brief: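 Mice carrying the transplanted tumor received test compound or vehicle. Survival was recorded in each group, and the value is the treated-group measurement divided by that of the vehicle-treated control group.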

The mark [1] stands for this setting: dose: 50.0 mg/kg/injection, schedule: Q01DX005 (ip), vehicle: Klucel (hydroxypropylcellulose) (HPC).
Where [2] appears, read: dose: 100.0 mg/kg/injection, schedule: Q01DX005 (ip), vehicle: Klucel (hydroxypropylcellulose) (HPC).
The mark [3] stands for this setting: dose: 200.0 mg/kg/injection, schedule: Q01DX005 (ip), vehicle: Klucel (hydroxypropylcellulose) (HPC).
The mark [4] stands for this setting: dose: 50.0 mg/kg/injection, schedule: Q01DX005 (ip), vehicle: saline with Tween-80.
Setting [5] is: dose: 100.0 mg/kg/injection, schedule: Q01DX005 (ip), vehicle: saline with Tween-80.
Setting [6] is: dose: 200.0 mg/kg/injection, schedule: Q01DX005 (ip), vehicle: saline with Tween-80.
[7] abbreviates: dose: 60.0 mg/kg/injection, schedule: Q01DX005 (ip), vehicle: saline with Tween-80.
The mark [8] stands for this setting: dose: 100.0 mg/kg/injection, schedule: Q04DX003 (ip), vehicle: saline.

In PubChem BioAssay AID330 (DTP/NCI, 2004) one finds T/C data, which are given here for 22 compounds.

Where “and” joins values, the source holds several entries; their conditions need not be identical. Equal entries are not always repeated. Inconclusive results and toxic doses are left out.

Consider `CC1(C)CN(C(C)(C)C)COC1OC1OCN(C(C)(C)C)CC1(C)C` (stereo not drawn), for which the T/C was 118 % of control (dose: 37.5 mg/kg/injection, schedule: Q01DX009 (ip), vehicle: saline with Tween-80); 109 % of control (dose: 75.0 mg/kg/injection, schedule: Q01DX009 (ip), vehicle: saline with Tween-80); 119 % of control (dose: 150.0 mg/kg/injection, schedule: Q01DX009 (ip), vehicle: saline with Tween-80).

Regarding `Cc1ccccc1CN1C2=NCCN2C(=O)C2=C1CCN(S(=O)(=O)c1ccc(Cl)c(S(N)(=O)=O)c1)C2`, the T/C is 96 % of control (dose: 50.0 mg/kg/injection, schedule: Q01DX009 (ip), vehicle: saline); 97 % of control (dose: 100.0 mg/kg/injection, schedule: Q01DX009 (ip), vehicle: saline); 90 % of control (dose: 200.0 mg/kg/injection, schedule: Q01DX009 (ip), vehicle: saline).

Turning to `CC(=O)Oc1ccc(/C(C)=N/NC(=O)C(C)SC(C)C(=O)N/N=C(\C)c2ccc(OC(C)=O)cc2)cc1` (stereo not drawn), the T/C reads like this: under setting [1], 108 % of control; under setting [2], 105 % of control; under setting [3], 106 % of control.

For `COc1cc(C=C(C(C)=O)C(C)=O)ccc1O`, the T/C reads like this: (dose: 50.0 mg/kg/injection, schedule: Q04DX003 (ip), vehicle: saline with Tween-80) 100 % of control; (dose: 100.0 mg/kg/injection, schedule: Q04DX003 (ip), vehicle: saline with Tween-80) 100 % of control; (dose: 200.0 mg/kg/injection, schedule: Q04DX003 (ip), vehicle: saline with Tween-80) 100 % of control.

For the compound `Nc1cc2[nH]c(=O)oc2cc1Cl`, the T/C is, setting by setting: under setting [1], 94 % of control; under setting [2], 100 % of control; under setting [3], 94 % of control.

`COc1cc(/C=C/C2=C(C)C(=O)CC(c3cc(OC)cc(OC)c3)C2C)cc(OC)c1` (stereo not drawn): the T/C by setting is: (dose: 12.5 mg/kg/injection, schedule: Q04DX003 (ip), vehicle: Klucel (hydroxypropylcellulose) (HPC)) 100 % of control; (dose: 25.0 mg/kg/injection, schedule: Q04DX003 (ip), vehicle: Klucel (hydroxypropylcellulose) (HPC)) 98 % of control; (dose: 50.0 mg/kg/injection, schedule: Q04DX003 (ip), vehicle: Klucel (hydroxypropylcellulose) (HPC)) 95 % of control.

For the compound `CC1=Nc2ccccc2OC2(C1)C(C1COC(C)(C)O1)OC1OC(C)(C)OC12` (stereo not drawn), the T/C under setting [4] is 99 % of control, the T/C under setting [5] was 95 % of control and the T/C under setting [6] is 104 % of control.

`Cc1cc(N)n2c(nc3ccccc32)c1C#N`: the T/C is, setting by setting: (dose: 15.0 mg/kg/injection, schedule: Q01DX005 (ip), vehicle: saline with Tween-80) 102 % of control; (dose: 30.0 mg/kg/injection, schedule: Q01DX005 (ip), vehicle: saline with Tween-80) 100 % of control; under setting [7], 93 % of control and 97 % of control.

Consider `Cc1ccc(-n2c(O)c(N=Nc3ccc(Br)cc3)c(=O)n(-c3ccc(Br)cc3)c2=S)cc1`, for which the T/C runs as follows: (dose: 100.0 mg/kg/injection, schedule: Q04DX002 (ip), vehicle: saline with Tween-80) 96 % of control; (dose: 200.0 mg/kg/injection, schedule: Q04DX002 (ip), vehicle: saline with Tween-80) 99 % of control; (dose: 400.0 mg/kg/injection, schedule: Q04DX002 (ip), vehicle: saline with Tween-80) 94 % of control.

As for `Cn1c(=O)c2c(nc(/N=C/c3ccncc3)n2C)n(C)c1=O`, the T/C runs as follows: under setting [8], 101 % of control; (dose: 200.0 mg/kg/injection, schedule: Q04DX003 (ip), vehicle: saline) 101 % of control; (dose: 400.0 mg/kg/injection, schedule: Q04DX003 (ip), vehicle: saline) 101 % of control.

In the case of `COC(=O)c1cn(C)c(-c2ccccc2)c1C(=O)OC`, the T/C runs as follows: under setting [1], 100 % of control; under setting [2], 100 % of control; under setting [3], 97 % of control.

As to `CSc1cccc(NC(=O)N2CCN(C)CC2)c1`, the T/C was 89 % of control (dose: 50.0 mg/kg/injection, schedule: Q01DX009 (ip), vehicle: Klucel (hydroxypropylcellulose) (HPC)); 91 % of control (dose: 100.0 mg/kg/injection, schedule: Q01DX009 (ip), vehicle: Klucel (hydroxypropylcellulose) (HPC)); 94 % of control (dose: 200.0 mg/kg/injection, schedule: Q01DX009 (ip), vehicle: Klucel (hydroxypropylcellulose) (HPC)).

In the case of `CC(=O)Nc1cccc(N(CCOS(C)(=O)=O)CCOS(C)(=O)=O)c1`, the T/C (dose: 20.0 mg/kg/injection, schedule: Q04DX003 (ip), vehicle: saline with Tween-80) was 172 % of control.

Take `CCOC(=O)c1cnc2c(C(F)(F)F)cccc2c1N=[N+]=[N-]`: the T/C was 99 % of control under setting [7]; 96 % of control (dose: 120.0 mg/kg/injection, schedule: Q01DX005 (ip), vehicle: saline with Tween-80); 95 % of control (dose: 240.0 mg/kg/injection, schedule: Q01DX005 (ip), vehicle: saline with Tween-80).

Consider `CC1=NN(C(=O)c2ccncc2)C(=O)C1N=Nc1ccc(C)cc1` (stereo not drawn), for which the T/C was 105 % of control (dose: 50.0 mg/kg/injection, schedule: Q01DX009 (ip), vehicle: saline with Tween-80); 101 % of control (dose: 100.0 mg/kg/injection, schedule: Q01DX009 (ip), vehicle: saline with Tween-80); 99 % of control (dose: 200.0 mg/kg/injection, schedule: Q01DX009 (ip), vehicle: saline with Tween-80).

`CO[C@@H]1C2=CC=CC=C[C@H]2n2c(=O)n(-c3ccccc3)c(=O)n21`: the T/C under setting [1] was 102 % of control and the T/C under setting [2] was 103 % of control.

As for `COC(=O)C1=C(C(=O)OC)C(c2ccccc2)N(C)O1` (stereo not drawn), the T/C under setting [4] was 103 % of control, the T/C under setting [5] is 98 % of control and the T/C under setting [6] was 106 % of control.

On to `CCCC(=O)Oc1ccc[nH]c1=O`, for which the T/C runs as follows: (dose: 3.13 mg/kg/injection, schedule: Q01DX009 (ip), vehicle: distilled water + Tween-80) 100 % of control; (dose: 3.13 mg/kg/injection, schedule: Q01DX009 (ip), vehicle: water) 92 % of control; (dose: 6.25 mg/kg/injection, schedule: Q01DX009 (ip), vehicle: distilled water + Tween-80) 107 % of control; (dose: 6.25 mg/kg/injection, schedule: Q01DX009 (ip), vehicle: water) 92 % of control; (dose: 12.5 mg/kg/injection, schedule: Q01DX009 (ip), vehicle: distilled water + Tween-80) 106 % of control; (dose: 12.5 mg/kg/injection, schedule: Q01DX009 (ip), vehicle: water) 92 % of control. In addition, the T/C was 100 % of control (dose: 25.0 mg/kg/injection, schedule: Q01DX009 (ip), vehicle: distilled water + Tween-80); 99 % of control and 107 % of control (dose: 25.0 mg/kg/injection, schedule: Q01DX009 (ip), vehicle: water); 109 % of control (dose: 50.0 mg/kg/injection, schedule: Q01DX009 (ip), vehicle: distilled water + Tween-80); 114 % of control (dose: 50.0 mg/kg/injection, schedule: Q01DX009 (ip), vehicle: water); 114 % of control (dose: 100.0 mg/kg/injection, schedule: Q01DX009 (ip), vehicle: water); 115 % of control (dose: 200.0 mg/kg/injection, schedule: Q01DX009 (ip), vehicle: water).

Consider `CCOC(=O)C1=C(C)N[C@@H](c2ccccc2[N+](=O)[O-])N[C@H]1c1ccccc1[N+](=O)[O-]`, for which the T/C runs as follows: under setting [1], 101 % of control; under setting [2], 101 % of control; under setting [3], 92 % of control.

Consider `CCCCCCCC/C=C\CCCCCCCCN=Cc1c(O)c(O)c(C(C)C)c2cc(C)c(-c3c(C)cc4c(C(C)C)c(O)c(O)c(C=NCCCCCCCC/C=C\CCCCCCCC)c4c3O)c(O)c12`, for which the T/C was 105 % of control (dose: 25.0 mg/kg/injection, schedule: Q01DX005 (ip), vehicle: saline + Tween-80 + alcohol); 105 % of control (dose: 50.0 mg/kg/injection, schedule: Q01DX005 (ip), vehicle: saline + Tween-80 + alcohol); 100 % of control (dose: 100.0 mg/kg/injection, schedule: Q01DX005 (ip), vehicle: saline + Tween-80 + alcohol); 105 % of control (dose: 200.0 mg/kg/injection, schedule: Q01DX005 (ip), vehicle: saline + Tween-80 + alcohol).

As for `Cc1ccccc1N=Nc1c(O)n(-c2ccc(Br)cc2)c(=S)n(-c2ccccc2)c1=O`, the T/C is 98 % of control (dose: 100.0 mg/kg/injection, schedule: Q01DX001 (ip), vehicle: saline with Tween-80); 98 % of control (dose: 200.0 mg/kg/injection, schedule: Q01DX001 (ip), vehicle: saline with Tween-80); 89 % of control (dose: 400.0 mg/kg/injection, schedule: Q01DX001 (ip), vehicle: saline with Tween-80).

`CC(=O)N1CCCC2=C1CCC2`: the T/C was 104 % of control (dose: 25.0 mg/kg/injection, schedule: Q04DX003 (ip), vehicle: saline); 100 % of control (dose: 50.0 mg/kg/injection, schedule: Q04DX003 (ip), vehicle: saline); 94 % of control and 97 % of control under setting [8].
